Reference: the NIST ThermoML archive (doi:10.1016/j.fluid.2008.07.003)

Details: Liquid

FCC(F)(F)F [1,1,1,2-tetrafluoroethane]
Details | vapor or sublimation pressure [kPa]
283.15 K | 416
293.15 K | 572.4
303.15 K | 771.5
313.15 K | 1017.5
323.15 K | 1318.8
333.15 K | 1681.6
343.15 K | 2114.5
353.15 K | 2629
